Laboratory results as given in ChEMBL document CHEMBL1131120, “The frontier orbital phase angles: novel QSAR descriptors for benzene derivatives, applied to phenylalkylamine hallucinogens” (1998).

Species: Homo sapiens
Assay: Compound tested for hallucinogenic activity in humans was reported; Value reported in (A)= Mescaline units
Assay type: functional

SMILES	Activity
COc1cc(CC(C)N)c(OC)c(OC)c1 (stereo not given)	4
COc1cc2c(cc1CC(C)N)OCO2 (stereo not given)	8
COc1cc(CC(C)N)cc(OC)c1Br (stereo not given)	43
COc1cc(CC(C)N)c(OC)cc1CCF (stereo not given)	110
CCCCSc1c(OC)cc(CCN)cc1OC	3
C=CCOc1c(OC)cc(CC(C)N)cc1OC (stereo not given)	11
COCCSc1cc(OC)c(CCN)cc1OC	9
COc1cc(CC(C)N)c(SC)cc1C (stereo not given)	4
COc1cc(CCN)c(OC)c2c1C1CCC2C1 (stereo not given)	22
COc1cc(CCN)c(OC)cc1C	8
CCc1cc(OC)c(CCN)cc1OC	18
CCOc1cc(CCN)cc(OC)c1OCC	1.3
COc1cc(CC(C)N)c(OC)c2c1CCC2 (stereo not given)	20
COc1cc(CCN)c(OC)cc1Cl	10
COc1cc(CC(C)N)c(OC)c(OC)c1OC (stereo not given)	6
COc1ccc(OC)c(OC)c1CC(C)N (stereo not given)	10
COc1cc(CCN)cc(OC)c1OC(C)C	5
CC(C)(N)Cc1ccc2c(c1)OCO2	1.5
CCSc1cc(CCN)cc(OC)c1OC	4
CCNC(C)Cc1ccc2c(c1)OCO2 (stereo not given)	2
COc1cc(CC(C)N)c(OC)c2c1OCO2 (stereo not given)	6
CCCSc1cc(OC)c(CCN)cc1OC	15

SMILES	Activity
COc1cc(CC(C)N)cc2c1OCO2 (stereo not given)	2
COc1cc(SCCF)c(OC)cc1CCN	29
CCOc1cc(CCN)cc(SC)c1OCC	2
CCOc1c(OC)cc(CCN)cc1SCC	2
C=C(C)COc1c(OC)cc(CCN)cc1OC	6
CCOc1cc(CCN)cc(OC)c1SCC	4
CCOc1cc(CCN)cc(OC)c1OC	1
CCc1cc(OC)c(CC(C)N)cc1SC (stereo not given)	15
COc1cc(CCN)c(OC)c(C)c1C	11
COc1cc(SC)c(OC)cc1CCN	4
CCC(C)Sc1cc(OC)c(CCN)cc1OC (stereo not given)	4
COc1cc(SC(C)(C)C)c(OC)cc1CCN	4
CC(Cc1ccc2c(c1)OCO2)NO (stereo not given)	2.3
CCC(C)Sc1cc(OC)c(CCNO)cc1OC (stereo not given)	3
CCCSc1cc(OC)c(CCNO)cc1OC	15
CCSc1cc(OC)c(CCNO)cc1OC	22
COc1c(CC(C)N)ccc2c1OCO2 (stereo not given)	6
COc1cc(SC(C)C)c(OC)cc1CC(C)N (stereo not given)	32
COc1cc(CCN)cc(OC)c1C	4
CCCSc1c(OC)cc(CCN)cc1OC	16
COc1cc(CC(C)N)cc(OC)c1OCc1ccccc1 (stereo not given)	3
COc1cc(SCC2CC2)c(OC)cc1CCN	7

SMILES	Activity
CCOc1c(OC)cc(CC(C)N)cc1OC (stereo not given)	7
COc1cc(C2CC2N)c(OC)cc1C (stereo not given)	17
COc1cc(CCN)cc(SC)c1OC	4
CCC(Cc1ccc2c(c1)OCO2)NC (stereo not given)	1.5
COc1cc(CCN)cc(OC)c1SC	10
COc1cc(CCN)c(OC)cc1Br	16
COc1cc(C)cc(OC)c1CC(C)N (stereo not given)	15
COc1cc(CC(C)N)cc(OC)c1OC (stereo not given)	2
CCOc1c(OC)cc(CCN)cc1OC	6
CCOc1c(OC)cc(CCN)cc1SC	4
COc1cc(CCN)c(OC)c2ccccc12	10
COc1cc(C)c(SC)cc1CC(C)N (stereo not given)	7
COc1cc(SC(C)C)c(OC)cc1CCN	21
COc1cc(CCN)c(OC)cc1I	17
COc1cc(OC)c(CC(C)N)cc1Br (stereo not given)	4
CCCc1cc(OC)c(CCN)cc1OC	37
CCSc1cc(OC)c(CCN)cc1OC	16
COc1cc(CC(C)N)c(OC)c(C)c1C (stereo not given)	12
CCSc1cc(OC)c(CC(C)N)cc1OC (stereo not given)	50
CCSc1c(OC)cc(CCN)cc1OC	12
CCCOc1c(OC)cc(CCN)cc1OC	7
COc1cc(CCN)c(OC)c2c1CCC2	14

SMILES	Activity
COc1cc(OC)c(CC(C)N)c(OC)c1 (stereo not given)	10
CCCSc1cc(OC)c(CC(C)N)cc1OC (stereo not given)	55
COc1cc(CCN)cc(OC)c1OCC1CC1	4
CCOc1cc(CCN)cc(OC)c1SC	4
COc1cc(SC)c(OC)cc1CC(C)N (stereo not given)	40
CCC(N)Cc1ccc2c(c1)OCO2 (stereo not given)	1.5
COc1cc(CC(C)N)c(OC)cc1I (stereo not given)	133
COc1cc(CC(C)N)c(OC)cc1Cl (stereo not given)	133
CCc1cc(OC)c(CC(C)N)cc1OC (stereo not given)	75
CCOc1cc(OC)c(CC(C)N)cc1OC (stereo not given)	9
COc1cc([N+](=O)[O-])c(OC)cc1CC(C)N (stereo not given)	80
COc1cc(OC)c(OC)cc1CC(C)N (stereo not given)	10
CCCc1cc(OC)c(CC(C)N)cc1OC (stereo not given)	80
COc1ccc(OC)c(CC(C)N)c1 (stereo not given)	2.5
COc1cc(CC(C)N)c(OC)cc1Br (stereo not given) [BROLAMFETAMINE]	150
COc1cc(CC(C)N)c(OC)cc1C (stereo not given) [DOM]	50
COc1cc(CCN)cc(OC)c1OC [MESCALINE]	1
COc1ccc(CC(C)N)cc1 (stereo not given) [PARA-METHOXYAMPHETAMINE]	5
CC(N)Cc1ccc2c(c1)OCO2 (stereo not given) [TENAMFETAMINE]	3
